These results are taken from patent US20130072519A1, “2-PHENYL BENZOYLAMIDES” (priority 2010, published 2013).

One test has as its system Apolipoprotein B Secretion from HepG2 Cells. The experiment in a line: Inhibition of Apolipoprotein B secretion from HepG2 cells (ELISA). Format: cell-based, human. Particulars: HepG2 cells, 22-24 hours incubation, ApoB ELISA; Low/High IC50 columns give the 95% confidence interval. The protocol:
Inhibition of Apolipoprotein B Secretion from HepG2 Cells
To assess the inhibitory effect of the compounds of the invention on ApoB production, an endogenously ApoB producing cell line, HEPG2, was implemented in an in vitro ELISA assay. HEPG2 cells are plated at 25,000 per well (96-well plates) in media consisting of DMEM Low Glucose, 1% NEAA (non-essential amino acids), 10% FBS (heat inactivated), 1% L-Glutamine, and 1% Antimycotic-Antibiotic and incubated for 16-18 hours at 37° C. and 5% CO2. After the 16-18 hour incubation, a 12 point half-log serial of the inhibitor (1000 nM-0.003 nM) is prepared, and 1.5 ul of the serial dilution is added to HEPG2 cells, which have had their media decanted and replaced with 148 ul of fresh media, and the cells are incubated for 22-24 hours at 37° C. and 5% CO2. Two and a half hours before the 22-24 hour incubation period is completed, Nunc Maxisorp plates are coated with 100 ul of primary (coating) antibody (goat anti-apoB), diluting to a ratio of 1:1000 in 1% Carbonate-Bicarbonate Coating Buffer and incubated for at least 2 hours at room temperature before the primary antibody is decanted and the wells of the microplate are washed with 200 ul of washing buffer (1% PBS, 0.05% Tween20). Next, 200 ul of blocking buffer (1% PBS, 1:500 Western Block, 5 mg/ml BSA) is added to the wells of the microplate, and incubated for at least 30 mins. Following the 22-24 hours incubation period, cell plates are removed from the incubator, 20 ul of supernatant from each well is aspirated, added to a corresponding well in 96 well plate containing 140 ul of diluent (1:2-Blocking Buffer: Washing Buffer), and mixed. Then, 120 ul is aspirated from the dilutent-supernatant plate, added to the blocked Nunc Maxisorp 96 well plate, and placed at room temperature on a shaker to mix for at least 2 hours. The secondary (capture) antibody (mouse anti-human apoB) is prepared at a ratio of 1:4000, and the detection antibody (goat anti-mouse HRP conjugated antibody) at a ratio of 1:10,000. For each antibody, 100 ul is added to each well of the microplate and the microplate is incubated at room temperature for 2 hours, washing the microplates between each antibody addition. Colorimetric development is achieved by adding 50 ul of TMB reagent to each well, incubating for 5 mins at room temperature, then adding 50 ul of 2M Sulfuric Acid to each well. Absorbance at 450 nm is monitored in an Envision plate reader to measure the amount of ApoB formed.
Results reported as average IC50, low and high IC50 range (95% confidence interval).
In turn, `CCOC(=O)C1(COC(=O)Cc2ccc(NC(=O)c3cccc(C)c3-c3ccc(C(F)(F)F)cc3)c(C(=O)N(C)C)c2)NC(=O)c2ccccc21` (stereo not drawn) [Example 11] returned an IC50 of 29.4 nM. For `CCOC(=O)C1(COC(=O)Cc2ccc(NC(=O)c3ccccc3-c3ccc(C(F)(F)F)cc3)c(C(=O)N(C)C)c2)CCc2cccnc21` (stereo not drawn) [Example 39], the IC50 stood at 2.34 nM. Turning to `CCOC(=O)C1(COC(=O)Cc2ccc(NC(=O)c3cccc(C)c3-c3ccc(C(F)(F)F)cc3)c(C(=O)N(C)C)c2)c2ncccc2C(=O)N1CC` (stereo not drawn) [Example 48, Ethyl 7-({2-[3-(Dimethylcarbamoyl)-4-({[6-methyl-4′-(trifluoromethyl)biphenyl-2-yl]carbonyl}amino)phenyl]acetoxy}methyl)-6-ethyl-5-oxo-6,7-dihydro-5H-pyrrolo[3,4-b]pyridine-7-carboxylate], the IC50 was 0.203 nM.

On to `Cc1cccc(C(=O)Nc2ccc(CC(=O)OCC3(C(=O)OCc4ccccc4)c4ccccc4C(=O)N3C)cc2C(=O)N(C)C)c1-c1ccc(C(F)(F)F)cc1` (single isomer, unassigned; (-)) [Example 9, (−)-Benzyl 1-({2-[3-(Dimethylcarbamoyl)-4-({[6-methyl-4′-(trifluoromethyl)biphenyl-2-yl]carbonyl}amino)phenyl]acetoxy}methyl)-2-methyl-3-oxoisoindoline-1-carboxylate], for which the midpoint of inhibition, the IC50, lay at 0.2 nM. The same measure, in the same setting: next, `Cc1cccc(C(=O)Nc2ccc(CC(=O)OCC3(C(=O)OCc4ccccc4)c4ccccc4C(=O)N3C)cc2C(=O)N(C)C)c1-c1ccc(C(F)(F)F)cc1` (single isomer, unassigned; (+)) [Example 10, (+)-Benzyl 1-({2-[3-(Dimethylcarbamoyl)-4-({[6-methyl-4′-(trifluoromethyl)biphenyl-2-yl]carbonyl}amino)phenyl]acetoxy}methyl)-2-methyl-3-oxoisoindoline-1-carboxylate]: 14.1 nM. Molecule `COC(=O)C1(COC(=O)Cc2ccc(NC(=O)c3ccccc3-c3ccc(C(F)(F)F)cc3)c(C(=O)N(C)C)c2)CCc2ccccc21` (stereo not drawn) [Example 34] gave an IC50 of 5.54 nM. The molecule `CN(C)C(=O)c1cc(CC(=O)OCC2(C(=O)OCc3ccccc3)c3ccccc3C(=O)N2C)ccc1NC(=O)c1ccccc1-c1ccc(C(F)(F)F)cc1` (stereo not drawn) [Example 22] showed a 50% inhibitory concentration (IC50) of 83.5 nM. On to `CCOC(=O)C1(COC(=O)Cc2ccc(NC(=O)c3cccc(C)c3-c3ccc(C(F)(F)F)cc3)c(C(=O)N(C)C)c2)NC(=O)c2ccccc21` (stereo not drawn) [Example 12], for which the IC50 was found to be 156 nM. Same read-out and setting: next, `CCOC(=O)C1(COC(=O)Cc2ccc(NC(=O)c3ccccc3-c3ccc(C(F)(F)F)cc3)c(C(=O)N(C)C)c2)c2ccccc2C(=O)N1CC` (stereo not drawn) [Example 19]: 0.107 nM. Same read-out and setting: the value for `CCOC(=O)C1(COC(=O)Cc2ccc(NC(=O)c3ccccc3-c3ccc(C(F)(F)F)cc3)c(C(=O)N(C)C)c2)CCc2cccnc21` (stereo not drawn) [Example 38] was 19.9 nM; that for `CCOC(=O)C1(COC(=O)Cc2ccc(NC(=O)c3cccc(C)c3-c3ccc(C(F)(F)F)cc3)c(C(=O)N(C)C)c2)c2ncccc2C(=O)N1CC` (stereo not drawn) [Example 47, Ethyl 7-({2-[3-(Dimethylcarbamoyl)-4-({[6-methyl-4′-(trifluoromethyl)biphenyl-2-yl]carbonyl}amino)phenyl]acetoxy}methyl)-6-ethyl-5-oxo-6,7-dihydro-5H-pyrrolo[3,4-b]pyridine-7-carboxylate] was 7.56 nM. The same measure, in the same setting: next, `CCOC(=O)C1(COC(=O)Cc2ccc(NC(=O)c3ccccc3-c3ccc(C(F)(F)F)cc3)c(C(=O)N(C)C)c2)NC(=O)c2ccccc21` (stereo not drawn) [Example 24]: 28 nM. As for `CN(C)C(=O)c1cc(CC(=O)OCC2(C(=O)OCc3ccccc3)c3ccccc3C(=O)N2C)ccc1NC(=O)c1ccccc1-c1ccc(C(F)(F)F)cc1` (stereo not drawn) [Example 23], the IC50 turned out to be 0.333 nM.

The test is the same for the next values; noted with them: Homo sapiens, HepG2, HepG2 cells, 22-24 hours incubation, ApoB ELISA; Low/High IC50 columns give the 95% confidence interval.
Molecule `CCOC(=O)C1(COC(=O)Cc2ccc(NC(=O)c3ccccc3-c3ccc(C(F)(F)F)cc3)c(C(=O)N(C)C)c2)c2ccccc2C(=O)N1Cc1ccc(OC)cc1OC` (racemic) [Example 27] came in with an IC50 of 30.8 nM.

Regarding `COC(=O)C1(COC(=O)Cc2ccc(NC(=O)c3ccccc3-c3ccc(C(F)(F)F)cc3)c(C(=O)N(C)C)c2)CCc2ccccc21` (racemic) [Example 28], half-maximal inhibition (IC50) required 3.17 nM. Same read-out and setting: next, `CCOC(=O)C1(COC(=O)Cc2ccc(NC(=O)c3ccccc3-c3ccc(C(F)(F)F)cc3)c(C)c2)OC(=O)c2ccccc21` (stereo not drawn) [Example 40]: 159 nM. With `CCOC(=O)C1(COC(=O)Cc2ccc(NC(=O)c3cccc(C)c3-c3ccc(C(C)C)cc3)c(C(=O)N(C)C)c2)c2ccccc2C(=O)N1C` (stereo not drawn) [Example 53], inhibition was half-maximal at 0.242 nM (IC50). The same measure, in the same setting: next, `CCOC(=O)C1(COC(=O)Cc2ccc(NC(=O)c3ccccc3-c3ccc(OC(C)C)cc3)c(C(=O)N(C)C)c2)c2ccccc2C(=O)N1C` (stereo not drawn) [Example 54, ethyl 1-({2-[3-(dimethylcarbamoyl)-4-{[(4′-isopropoxybiphenyl-2-yl)carbonyl]amino}phenyl]acetoxy}methyl)-2-methyl-3-oxoisoindoline-1-carboxylate]: 0.124 nM.

For the molecule `CCOC(=O)[C@]1(COC(=O)Cc2ccc(NC(=O)c3cccc(C)c3-c3ccc(C(F)(F)F)cc3)c(C(=O)N3CCCCC3)c2)c2ccccc2C(=O)N1C` [Example 62, ethyl (1R)-2-methyl-1-({2-[4-({[6-methyl-4′-(trifluoromethyl)biphenyl-2-yl]carbonyl}amino)-3-(piperidin-1-ylcarbonyl)phenyl]acetoxy}methyl)-3-oxoisoindoline-1-carboxylate], the IC50 worked out at 1.17 nM. Still for that read-out and setting: next, `CCOC(=O)C1(COC(=O)Cc2ccc(NC(=O)c3ccccc3-c3ccc(C(F)(F)F)cc3)c(C(=O)N(C)C)c2)CCc2ccccc21` (racemic) [Example 29]: 2.04 nM.

The molecule `CCOC(=O)C1(COC(=O)Cc2ccc(NC(=O)c3ccc(C(F)(F)F)cc3-c3ccc(C(F)(F)F)cc3)c(C(=O)N(C)C)c2)c2ccccc2C(=O)N1C` (stereo not drawn) [Example 55, ethyll-({2-[4-({[4′,5-bis(trifluoromethyl)biphenyl-2-yl]carbonyl}amino)-3-(dimethylcarbamoyl)phenyl]acetoxy}methyl)-2-methyl-3-oxoisoindoline-1-carboxylate] came in with an IC50 of 0.154 nM. The same measure, in the same setting: the value for `CCOC(=O)C1(COC(=O)Cc2ccc(NC(=O)c3ccccc3-c3ccc(C(F)(F)F)cc3)c(C(=O)N(C)C)c2)c2ccccc2C(=O)N1CC` (racemic) [Example 15] was 1.45 nM. Take `CCOC(=O)[C@]1(COC(=O)Cc2ccc(NC(=O)c3cccc(C)c3-c3ccc(C(C)(C)C)cc3)c(C(=O)N(C)C)c2)c2ccccc2C(=O)N1C` [Example 67, ethyl (1R)-1-({2-[4-{[(4′-tert-butyl-6-methylbiphenyl-2-yl)carbonyl]amino}-3-(dimethylcarbamoyl)phenyl]acetoxy}methyl)-2-methyl-3-oxoisoindoline-1-carboxylate]: the IC50 turned out to be 0.244 nM. Same read-out and setting: the value for `CCOC(=O)C1(COC(=O)Cc2ccc(NC(=O)c3ccccc3-c3ccc(C(F)(F)F)cc3)c(C)c2)c2ccccc2C(=O)N1C` (stereo not drawn) [Example 17] was 3.07 nM; that for `CCOC(=O)C1(COC(=O)Cc2ccc(NC(=O)c3cccc(C)c3-c3ccc(C(F)(F)F)cc3)c(C(=O)N(C)C)c2)c2ncccc2C(=O)N1CC` (racemic) [Example 44] was 0.328 nM. Same read-out and setting: the value for `CCOC(=O)C1(COC(=O)Cc2ccc(NC(=O)c3ccc(C(F)(F)F)cc3-c3ccc(C(F)(F)F)cc3)c(C(=O)N(C)C)c2)CCc2cccnc21` (stereo not drawn) [Example 58, ethyl 7-({2-[4-({[4′,5-bis(trifluoromethyl)biphenyl-2-yl]carbonyl}amino)-3-(dimethylcarbamoyl)phenyl]acetoxy}methyl)-6,7-dihydro-5H-cyclopenta[b]pyridine-7-carboxylate] was 7.18 nM; that for `CCOC(=O)C1(COC(=O)Cc2ccc(NC(=O)c3cccc(C)c3-c3ccc(C(C)(C)C)cc3)c(C(=O)N(C)C)c2)OC(=O)c2ccccc21` (stereo not drawn) [Example 2] was 519 nM; that for `CCOC(=O)C1(COC(=O)Cc2ccc(NC(=O)c3ccccc3-c3ccc(C(F)(F)F)cc3)c(C(=O)N(C)C)c2)NC(=O)c2ccccc21` (racemic) [Example 21] was 16.5 nM. On the same count and under the same terms, the value for `CCOC(=O)C1(COC(=O)Cc2ccc(NC(=O)c3ccccc3-c3ccc(C(F)(F)F)cc3)c(Cl)c2)c2ccccc2C(=O)N1C` (stereo not drawn) [Example 6] was 4.77 nM; that for `CCOC(=O)C1(COC(=O)Cc2ccc(NC(=O)c3ccccc3-c3ccc(C(F)(F)F)cc3)c(C(=O)N(C)C)c2)c2ccccc2C(=O)N1C` (stereo not drawn) [Example 13] was 7.18 nM.
